Where two headings read alike, the source gives them in different places.
Assays:
Format in all cases: in vivo
Culex pipiens pallens = assay: Test Example 5: larvae in treated water, Culex pipiens pallens; conditions: 24 h, read-out: rate of dead pests
Protocol: The formulation obtained according to Formulation Example 5 using the compound of the present invention (1), (2), (3), (4), (5), (6), (7), (8), (9), (10), (11), (12), (13), (14), (15), (16), (17), (18), (19), (20), (21), (22), (23), (25), (27), (28), (29), […], (31), (32), (33), (34), (35), (36), (37), (38), (39), (41), (44), (45), (46), (47) and (48) respectively, was diluted with water so that the active ingredient concentration came to 500 ppm to prepare a pesticidal solution for test.
0.7 ml of above pesticidal solution for test was added to 100 ml of ion exchanged water (active ingredient concentration: 3.5 ppm). Twenty last-instar larvae of Culex pipiens pallens were set free in the solution. After one day, the number of surviving and dead Culex pipiens pallens was examined and the rate of dead pests was calculated.

Blattella germanica = assay: Test Example 4: treated filter paper with sucrose bait, Blattella germanica; conditions: 144 h, read-out: rate of dead pests
Protocol: (§1) The formulation obtained according to Formulation Example 5 using the compound of the present invention (2), (3), (4), (6), (7), (8), (9), (11), (12), (13), (15), (16), (18), (19), (20), (21), (22), (27), (28), (29), (30), (31), (32), (33), (34), (35), (36), (37), (38), (43) and (43) respectively, was diluted with water so that the active ingredient concentration came to 500 ppm to prepare a pesticidal solution for test.
(§2) On the bottom of a polyethylene cup having a diameter of 5.5 cm, a filter paper having the same diameter was laid, and 0.7 ml of the above pesticidal solution for test was added dropwise on the filter paper, followed by putting 30 mg of sucrose on it uniformly as a bait. Two male Blattella germanica imagoes were set free in the polyethylene cup and covered it with a lid. After 6 days, the number of surviving and dead Blattella germanica was examined and the rate of dead pests was calculated.

Musca domestica = assay: Test Example 3: treated filter paper with sucrose bait, Musca domestica; conditions: read-out: rate of dead pests
Protocol: as §1, with “(8),” for “(8), (9),”, “(16),” for “(16), (18),”, “(22),” for “(22), (27),”, “(34),” for “(34), (35),”, “(38)” for “(38), (43)”, “(39)” for “(43)”
as §2, with “Ten female Musca domestica” for “Two male Blattella germanica”, “24 hours,” for “6 days,”, “Musca domestica” for “Blattella germanica”

[1] = active ingredient concentration 3.5 ppm in water, twenty last-instar larvae of Culex pipiens pallens, after one day
[2] = 500 ppm, 0.7 ml on filter paper, two male Blattella germanica imagoes, after 6 days
[3] = 500 ppm, 0.7 ml on filter paper, ten female Musca domestica imagoes, after 24 hours

SMILES	pest or weed control at 3.5 ppm (Culex pipiens pallens; [1]) [%]	pest or weed control at 500 ppm (Blattella germanica; [2]) [%]	pest or weed control at 500 ppm (Musca domestica; [3]) [%]	also measured
N#CC(C#N)(CCC(F)(F)F)Cn1cccn1 [compound of the present invention (1), (1H-pyrazole-1-yl methyl) (3,3,3-trifluoropropyl) malononitrile]	≥ 95			
CC(C)c1ccn(CC(C#N)(C#N)CCC(F)(F)F)n1 [compound of the present invention (2), [(3-i-propyl-1H-pyrazole-1-yl)methyl](3,3,3-trifluoropropyl) malononitrile]	≥ 95	100	≥ 90	
CC(C)(C)c1ccn(CC(C#N)(C#N)CCC(F)(F)F)n1 [compound of the present invention (3), [(3-t-butyl-1H-pyrazole-1-yl)methyl](3,3,3-trifluoropropyl) malononitrile]	≥ 95	100	≥ 90	
C=CCC(C#N)(C#N)Cn1ccc(C(C)(C)C)n1 [compound of the present invention (4), allyl [(3-t-butyl-1H-pyrazole-1-yl)methyl]malononitrile]	≥ 95	100	≥ 90	
CC1(C)CCc2cn(CC(C#N)(C#N)CCC(F)(F)F)nc21 [compound of the present invention (5), [(6,6-dimethyl-5,6-dihydro-cyclopenta[c]pyrazole-2(4H)-yl)methyl](3,3,3-trifluoropropyl) malononitrile]	≥ 95			
N#CC(C#N)(CCC(F)(F)F)Cn1ccc(C(F)(F)F)n1 [compound of the present invention (6), {[3-(trifluoromethyl)-1H-pyrazole-1-yl]methyl}(3,3,3-trifluoropropyl) malononitrile]	≥ 95	100	≥ 90	
C=CCC(C#N)(C#N)Cn1ccc(C(F)(F)F)n1 [compound of the present invention (7), allyl {[3-(trifluoromethyl)-1H-pyrazole-1-yl]methyl}malononitrile]	≥ 95	100	≥ 90	
N#CC(C#N)(CCC(F)(F)F)Cn1ccc(C=O)n1 [compound of the present invention (8), [(3-formyl-1H-pyrazole-1-yl)methyl](3,3,3-trifluoropropyl) malononitrile]				pest or weed control at 3.5 ppm (Culex pipiens pallens; Culex pipiens): ≥ 95%; pest or weed control at 500 ppm (Blattella germanica; Blattella germanica): 100%; pest or weed control at 500 ppm (Musca domestica; Musca domestica, 24 h): ≥ 90%
N#Cc1ccn(CC(C#N)(C#N)CCC(F)(F)F)n1 [compound of the present invention (9), [(3-cyano-1H-pyrazole-1-yl)methyl](3,3,3-trifluoropropyl) malononitrile]	≥ 95	100		
N#CC(C#N)(CCC(F)(F)F)Cn1ccc(-c2ccccc2)n1 [compound of the present invention (10), [(3-phenyl-1H-pyrazole-1-yl)methyl](3,3,3-trifluoropropyl)malononitrile]	≥ 95			
CC(C)c1nn(CC(C#N)(C#N)CCC(F)(F)F)cc1Br [compound of the present invention (11), [(4-bromo-3-i-propyl-1H-pyrazole-1-yl)methyl] (3,3,3-trifluoropropyl) malononitrile]	≥ 95	100	≥ 90	
C=CCC(C#N)(C#N)Cn1cc(Br)c(C(C)(C)C)n1 [compound of the present invention (14), allyl [(4-bromo-3-t-butyl-1H-pyrazole-1-yl)methyl]malononitrile]	≥ 95			
Cc1cc(C)n(CC(C#N)(C#N)CCC(F)(F)F)n1 [compound of the present invention (17)]	≥ 95			
Cc1cnn(CC(C#N)(C#N)CCC(F)(F)F)c1 [compound of the present invention (18)]	≥ 95	100		
COC(=O)c1cnn(CC(C#N)(C#N)CCC(F)(F)F)c1 [compound of the present invention (23), [{4-(methoxycarbonyl)-1H-pyrazole-1-yl}methyl](3,3,3-trifluoropropyl) malononitrile]	≥ 95			
CCOC(=O)c1cn(CC(C#N)(C#N)CCC(F)(F)F)nc1C(F)(F)F [compound of the present invention (25), {[4-ethoxycarbonyl-3-(trifluoromethyl)-pyrazole-1H-yl]methyl}(3,3,3-trifluoropropyl) malononitrile]	≥ 95			
N#CC(C#N)(CCC(F)(F)F)Cn1cncn1 [compound of the present invention (27), [(1H-1,2,4-triazole-1-yl)methyl](3,3,3-trifluoropropyl) malononitrile]	≥ 95	100		
CCC(C)(C)c1ncn(CC(C#N)(C#N)CCC(F)(F)F)n1 [compound of the present invention (30), {[3-(1,1-dimethylpropyl)-1H-1,2,4-triazole-1-yl]methyl}(3,3,3-trifluoropropyl) malononitrile]		100	≥ 90	
C=CCC(C#N)(C#N)Cn1cnc(C(F)(F)C(F)(F)F)n1 [compound of the present invention (35), allyl {[3-(pentafluoroethyl)-1H-1,2,4-triazole 1-yl]methyl}malononitrile]	≥ 95	100		
N#Cc1cn(CC(C#N)(C#N)CCC(F)(F)F)c2ccccc12 [compound of the present invention (39), [{3-cyano-1H-indole-1-yl}methyl] (3,3,3-trifluoropropyl) malononitrile]	≥ 95		≥ 90	
N#CC(C#N)(CCC(F)(F)F)Cn1cc(C(=O)C(F)(F)F)c2ccccc21 [compound of the present invention (41), [{3-(trifluoroacetyl)-1H-indole-1-yl}methyl](3,3,3-trifluoropropyl) malononitrile]				pest or weed control at 3.5 ppm (Culex pipiens pallens; Culex pipiens): ≥ 95%
N#CC(C#N)(CCC(F)(F)F)Cn1cc(SC(F)(Cl)Cl)cn1 [compound of the present invention (43), [(4-{(dichlorofluoromethyl)thio}-1H-pyrazole-1-yl)methyl](3,3,3-trifluoropropyl)malononitrile]		100		
N#CC(C#N)(CCC(F)(F)F)Cn1cc(SC(F)(Cl)Cl)c2ccccc21 [compound of the present invention (44), [(3-{[dichlorofluoromethyl]thio}-1H-indole-1-yl)methyl](3,3,3-trifluoropropyl) malononitrile]	≥ 95			
N#Cc1cn(CC(C#N)(C#N)CCC(F)(F)F)cc1C(F)(F)F [compound of the present invention (46), [(3-cyano-4-trifluoromethyl-1H-pyrole-1-yl)methyl](3,3,3-trifluoropropyl) malononitrile]	≥ 95			
CCOC(=O)c1cn(CC(C#N)(C#N)CCC(F)(F)F)cc1C(F)(F)F [compound of the present invention (47), [(3-ethoxycarbonyl-4-trifluoromethyl-1H-pyrole-1-yl)methyl](3,3,3-trifluoropropyl)malononitrile]	≥ 95			
N#Cc1ccn(CC(C#N)(C#N)CCC(F)(F)F)c1 [compound of the present invention (48), [(3-cyano-1H-pyrole-1-yl)methyl] (3,3,3-trifluoropropyl) malononitrile]	≥ 95			
